Laboratory results taken from the NIST ThermoML archive (doi:10.1021/je900722m).
± gives the expanded uncertainty stated by the source.

Conditions: 101.33 kPa, Liquid

Row | mass density (303.15 K) [kg/m3] | viscosity (303.15 K) [mPa·s] | mass density (308.15 K) [kg/m3] | viscosity (308.15 K) [mPa·s] | mass density (313.15 K) [kg/m3] | viscosity (313.15 K) [mPa·s] | mass density (318.15 K) [kg/m3] | viscosity (318.15 K) [mPa·s] | mass density (323.15 K) [kg/m3] | viscosity (323.15 K) [mPa·s] | mass density (328.15 K) [kg/m3] | viscosity (328.15 K) [mPa·s] | mass density (333.15 K) [kg/m3] | viscosity (333.15 K) [mPa·s] | mass density (338.15 K) [kg/m3] | viscosity (338.15 K) [mPa·s] | mass density (343.15 K) [kg/m3] | viscosity (343.15 K) [mPa·s] | Compound
1 | 794.064 ± 0.46 | 2.649 ± 0.045 | 790.123 ± 0.46 | 2.28 ± 0.039 | 786.12 ± 0.47 | 1.965 ± 0.034 | 782.061 ± 0.48 | 1.692 ± 0.03 | 777.932 ± 0.48 | 1.482 ± 0.026 | 773.732 ± 0.49 | 1.268 ± 0.023 | 769.448 ± 0.5 | 1.116 ± 0.02 | 765.079 ± 0.51 | 0.9851 ± 0.019 | 760.611 ± 0.51 | 0.8767 ± 0.017 | CC(C)CO [2-methyl-1-propanol]
2 | – | – | 770.365 ± 0.5 | 2.69 ± 0.046 | 765.07 ± 0.51 | 2.142 ± 0.037 | 759.675 ± 0.52 | 1.737 ± 0.03 | 754.193 ± 0.53 | 1.428 ± 0.025 | 748.621 ± 0.54 | 1.196 ± 0.022 | 742.954 ± 0.55 | 1.016 ± 0.019 | 737.19 ± 0.56 | 0.8734 ± 0.017 | 731.313 ± 0.56 | 0.7603 ± 0.016 | CC(C)(C)O [2-methylpropan-2-ol]
3 | 802.213 ± 0.44 | 2.296 ± 0.039 | 798.343 ± 0.45 | 2.025 ± 0.035 | 794.425 ± 0.45 | 1.795 ± 0.031 | 790.465 ± 0.46 | 1.595 ± 0.028 | 786.456 ± 0.47 | 1.417 ± 0.025 | 782.399 ± 0.47 | 1.271 ± 0.023 | 778.281 ± 0.48 | 1.138 ± 0.021 | 774.098 ± 0.49 | 1.028 ± 0.019 | 769.845 ± 0.49 | 0.9306 ± 0.018 | CCCCO [butan-1-ol]
4 | 798.351 ± 0.48 | 2.607 ± 0.045 | 794.052 ± 0.48 | 2.163 ± 0.037 | 789.658 ± 0.49 | 1.84 ± 0.032 | 785.159 ± 0.5 | 1.557 ± 0.028 | 780.552 ± 0.51 | 1.333 ± 0.024 | 775.832 ± 0.51 | 1.151 ± 0.021 | 770.993 ± 0.52 | 1.002 ± 0.019 | 766.038 ± 0.53 | 0.8779 ± 0.017 | 760.962 ± 0.54 | 0.7769 ± 0.016 | CCC(C)O (stereo not given) [butan-2-ol]
